Key:
[1] = microsomes
Summary of the method: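 Depletion measured by LC/MS/MS at 2, 12, 25, 45 and 65 minutes after 1 uM compound was added to liver microsomes (0.5 mg/mL; dog, rat, human) with NADPH-regenerating cofactor, in duplicate. In vitro t1/2 converted to Clint.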

[2] = tested on: HIV-1 (IIIB) in MT-4 cells; experiment: MT-4 HIV assay; assay type: cell-based; conditions: Human immunodeficiency virus 1, MT4, 120 h; HIV-1 (IIIB), MT-4 cells, 5 days, Cell Titer Glo; read-out: EC50
Summary of the method: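 Antiviral activity was read by Cell Titer Glo after a 5-day, 37 °C culture of MT-4 cells pre-infected with a 1:250 dilution of HIV-1 (IIIB). Compounds were tested as threefold dilution series in complete RPMI. Controls were no drug, mock infection and 5 uM AZT.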

in vivo = conditions: rat, in vivo; for Vd / RAT PO F: male, SD; for Vd / RAT IV CL / RAT IV T1/2: iv; for RAT PO F: 2.5 mg/kg
Procedure: Each dosing group consisted of 3 male naïve SD Rats. At dosing, the animals weighed between 0.27 to 0.32 kg. The animals were fasted overnight prior to dose administration. The test article was administered by intravenous infusion over 30 min. The rate of infusion was adjusted according to the body weight of each animal to deliver a dose of 0.5 or 1.0 mg/kg. For the oral dosing group, the test article was administered to animals by oral gavage administration. Serial venous blood samples (approximately 0.30 mL each) were taken at predose and 0.25, 0.48, 0.58, 0.75, 1.5, 3, 6, 8, 12 and 24 hours post dose for the IV dosing group animals. Blood samples were taken at predose, 0.25, 0.50, 1, 2, 4, 6, 8, 12 and 24 hours post dose for the oral group animals. The blood samples were collected into Vacutainer™ tubes containing EDTA-K2 as the anti-coagulant and were immediately placed on wet ice pending centrifugation for plasma. An LC/MS/MS method was used to measure the concentration of test compound in plasma. Non-compartmental pharmacokinetic analysis was performed on the plasma concentration-time data.

Row | SMILES | Human Pred Cl. [1] | Rat. Pred. Cl. [1] | EC50 [2] | Vd (in vivo) | RAT PO F (in vivo) | RAT IV CL (in vivo) | RAT IV T1/2 (in vivo) | Dog. Pred. Cl. [1]
1 | COC(=O)N[C@H](C(=O)N[C@@H](Cc1ccc(C#Cc2ccc(N3CC4CCC(C3)N4C3COC3)nc2)cc1)[C@@H](O)CN(Cc1c(F)cc(-c2ccccn2)cc1F)NC(=O)[C@@H](NC(=O)OC)C(C)(C)C(F)(F)F)C(C)(C)C(F)(F)F [Example 130, Methyl ((5S,8S,9S,14S)-11-(2,6-difluoro-4-(pyridin-2-yl)benzyl)-16,16,16-trifluoro-9-hydroxy-15,15-dimethyl-8-(4-((6-(8-(oxetan-3-yl)-3,8-diazabicyclo 3.2.1 octan-3-yl)pyridin-3-yl)ethynyl)benzyl)-3,6,13-trioxo-5-(1,1,1-trifluoro-2-methylpropan-2-yl)-2-oxa-4,7,11,12-tetraazahexadecan-14-yl)carbamate] | 0.32 L/H/kg | <0.18 L/H/kg | 3.41 nM | 5.27 L/kg | 55.7% | 6.5 mL/min/kg | 11.5 h | 
2 | COC(=O)N[C@H](C(=O)NN(Cc1c(F)cc(-c2ccn(C(F)F)n2)cc1F)C[C@H](O)[C@H](Cc1ccc(C#Cc2cnc(N3CC4CCC(C3)N4C3COC3)nc2)cc1)NC(=O)[C@@H](NC(=O)C1CC1)C(C)(C)C(F)(F)F)C(C)(C)C(F)(F)F [Example 221, Methyl ((2S)-1-(2-((2S,3S)-3-((S)-2-(cyclopropanecarboxamido)-4,4,4-trifluoro-3,3-dimethylbutanamido)-2-hydroxy-4-(4-((2-(8-(oxetan-3-yl)-3,8-diazabicyclo[3.2.1]octan-3-yl)pyrimidin-5-yl)ethynyl)phenyl)butyl)-2-(4-(1-(difluoromethyl)-1H-pyrazol-3-yl)-2,6-difluorobenzyl)hydrazinyl)-4,4,4-trifluoro-3,3-dimethyl-1-oxobutan-2-yl)carbamate] | <0.11 L/H/kg | 0.28 L/H/kg | 4.49 nM | 4.41 L/kg | 19.9% | 5.33 mL/min/kg | 11.5 h | 0.14 L/H/kg
3 | COC(=O)N[C@H](C(=O)N[C@@H](Cc1ccc(C#Cc2ccc(N3CC4CCC(C3)N4C3COC3)nc2)cc1)[C@@H](O)CN(Cc1ccc(-c2ccccn2)cc1)NC(=O)[C@@H](NC(=O)OC)C(C)(C)C(F)(F)F)C(C)(C)C(F)(F)F [Example 56, Methyl ((5S,8S,9S,14S)-16,16,16-trifluoro-9-hydroxy-15,15-dimethyl-8-(4-((6-(8-(oxetan-3-yl)-3,8-diazabicyclo[3.2.1]octan-3-yl)pyridin-3-yl)ethynyl)benzyl)-3,6,13-trioxo-11-(4-(pyridin-2-yl)benzyl)-5-(1,1,1-trifluoro-2-methylpropan-2-yl)-2-oxa-4,7,11,12-tetraazahexadecan-14-yl)carbamate] | 0.17 L/H/kg | 0.19 L/H/kg | 3.59 nM | 7.44 L/kg | 34.1% | 14.2 mL/min/kg | 8.77 h | 1.47 L/H/kg
4 | COC(=O)N[C@H](C(=O)N[C@@H](Cc1ccc(C#Cc2ccc(N3CC4CCC(C3)N4C3COC3)nc2)cc1)[C@@H](O)CN(Cc1c(F)cc(-c2ccccn2)cc1Cl)NC(=O)[C@@H](NC(=O)OC)C(C)(C)C(F)(F)F)C(C)(C)C(F)(F)F [Example 74, Methyl ((5S,8S,9S,14S)-11-(2-chloro-6-fluoro-4-(pyridin-2-yl)benzyl)-16,16,16-trifluoro-9-hydroxy-15,15-dimethyl-8-(4-((6-(8-(oxetan-3-yl)-3,8-diazabicyclo[3.2.1]octan-3-yl)pyridin-3-yl)ethynyl)benzyl)-3,6,13-trioxo-5-(1,1,1-trifluoro-2-methylpropan-2-yl)-2-oxa-4,7,11,12-tetraazahexadecan-14-yl)carbamate] | 0.17 L/H/kg | 0.2 L/H/kg | 6.79 nM | 5.07 L/kg | 35.8% | 6.5 mL/min/kg | 11.6 h | 1.53 L/H/kg
5 | COC(=O)N[C@H](C(=O)N[C@@H](Cc1ccc(C#Cc2ccc(N3CC4CCC(C3)N4C3COC3)nc2)cc1)[C@@H](O)CN(Cc1c(F)cc(-c2cc3n(n2)CCOC3)cc1F)NC(=O)[C@@H](NC(=O)OC)C(C)(C)C(F)(F)F)C(C)(C)C(F)(F)F [Example 57, Methyl ((5S,8S,9S,14S)-11-(4-(6,7-dihydro-4H-pyrazolo[5,1-c][1,4]oxazin-2-yl)-2,6-difluorobenzyl)-16,16,16-trifluoro-9-hydroxy-15,15-dimethyl-8-(4-((6-(8-(oxetan-3-yl)-3,8-diazabicyclo[3.2.1]octan-3-yl)pyridin-3-yl)ethynyl)benzyl)-3,6,13-trioxo-5-(1,1,1-trifluoro-2-methylpropan-2-yl)-2-oxa-4,7,11,12-tetraazahexadecan-14-yl)carbamate] | <0.11 L/H/kg | <0.18 L/H/kg | 2.91 nM | 2.45 L/kg | 23.2% | 6 mL/min/kg | 6.28 h | 
6 | COC(=O)N[C@H](C(=O)N[C@@H](Cc1ccc(C#Cc2cnc(N3CC4CCC(C3)N4C3COC3)nc2)cc1)[C@@H](O)CN(Cc1c(F)cc(-c2cnn(C(F)F)c2)cc1F)NC(=O)[C@@H](NC(=O)OC)C(C)(C)C(F)(F)F)C(C)(C)C(F)(F)F [Example 61, Methyl ((5S,8S,9S,14S)-11-(4-(1-(difluoromethyl)-1H-pyrazol-4-yl)-2,6-difluorobenzyl)-16,16,16-trifluoro-9-hydroxy-15,15-dimethyl-8-(4-((2-(8-(oxetan-3-yl)-3,8-diazabicyclo[3.2.1]octan-3-yl)pyrimidin-5-yl)ethynyl)benzyl)-3,6,13-trioxo-5-(1,1,1-trifluoro-2-methylpropan-2-yl)-2-oxa-4,7,11,12-tetraazahexadecan-14-yl)carbamate] | <0.11 L/H/kg | <0.18 L/H/kg | 4.11 nM | 6.5 L/kg | 18.5% | 7.17 mL/min/kg | 12.9 h | 
7 | COC(=O)N[C@H](C(=O)N[C@@H](Cc1ccc(C#Cc2ccc(N3CC4CCC(C3)N4C3COC3)nc2)cc1)[C@@H](O)CN(Cc1c(F)cc(-c2cn(C(F)F)cn2)cc1F)NC(=O)[C@@H](NC(=O)OC)C(C)(C)C(F)(F)F)C(C)(C)C(F)(F)F [Example 79, Methyl ((5S,8S,9S,14S)-11-(4-(1-(difluoromethyl)-1H-imidazol-4-yl)-2,6-difluorobenzyl)-16,16,16-trifluoro-9-hydroxy-15,15-dimethyl-8-(4-((6-(8-(oxetan-3-yl)-3,8-diazabicyclo[3.2.1]octan-3-yl)pyridin-3-yl)ethynyl)benzyl)-3,6,13-trioxo-5-(1,1,1-trifluoro-2-methylpropan-2-yl)-2-oxa-4,7,11,12-tetraazahexadecan-14-yl)carbamate] | <0.11 L/H/kg | <0.18 L/H/kg | 3.53 nM | 4.07 L/kg | 13.1% | 12.8 mL/min/kg | 5.13 h | 
8 | COC(=O)N[C@H](C(=O)N[C@@H](Cc1ccc(C#Cc2ccc(N3CC4CCC(C3)N4C3COC3)nc2)cc1)[C@@H](O)CN(Cc1c(F)cc(-c2cnn(C(F)F)c2)cc1F)NC(=O)[C@@H](NC(=O)OC)C(C)(C)C(F)(F)F)C(C)(C)C(F)(F)F [Example 71, Methyl ((5S,8S,9S,14S)-11-(4-(1-(difluoromethyl)-1H-pyrazol-4-yl)-2,6-difluorobenzyl)-16,16,16-trifluoro-9-hydroxy-15,15-dimethyl-8-(4-((6-(8-(oxetan-3-yl)-3,8-diazabicyclo[3.2.1]octan-3-yl)pyridin-3-yl)ethynyl)benzyl)-3,6,13-trioxo-5-(1,1,1-trifluoro-2-methylpropan-2-yl)-2-oxa-4,7,11,12-tetraazahexadecan-14-yl)carbamate] | <0.11 L/H/kg | <0.18 L/H/kg | 3.37 nM | 7.26 L/kg | 24.6% | 15 mL/min/kg | 9.27 h | 0.47 L/H/kg
